Assay results reported in patent US8466311B2, “Neuroprotective compositions and methods” (Sanford-Burnham Medical Research Institute, priority 2006, dated 2013).

How the values were obtained:
[1] = system: ARE probe; assay: EMSA with biotin-labeled ARE probe, HT22 nuclear lysates; assay type: cell-based; conditions: HT22 cells, NEPP11 1 μM, 8 h
Protocol: Electrophoretic mobility shift assays (EMSAs). Double-stranded antioxidant-responsive elements (AREs) were labeled by using a biotin 3′-end DNA labeling kit (Pierce). Nuclear lysates were incubated with the labeled probe for 20 min at room temperature, resolved on an 8% native polyacrylamide gel, and transferred to Hybond-N^+ (Amersham Pharmacia). Signals were visualized with peroxidase-conjugated streptavidin (Pierce).
To confirm that NEPP11 leads to an increase in transcription factors, including Nrf2, that bind to the ARE, we performed EMSAs. HT22 cells were incubated for 8 h with vehicle or NEPP11 (1 μM). EMSAs were performed by using 10 μg of nuclear lysates per lane and a biotin-labeled ARE probe. In one lane, anti-Nrf2 antibody (100×) was added to supershift Nrf2 protein binding to ARE probe. In another lane, an excess amount of non-labeled probe was added to the sample to compete out the labeled ARE probe from binding to proteins in the nuclear lysates. […] The band representing the labeled ARE probe was shifted in the presence of control lysates, indicating binding of endogenous transcription factors to the ARE. […] In contrast, the band was totally abrogated in the presence of excess unlabeled probe. […]

[2] = system: ARE; assay: ARE luciferase reporter in cortical cultures; assay type: cell-based, rat
Protocol: Cortical cultures (E17, DIV21) were transfected with ARE-luciferase reporter gene DNA (1 μg/well) and co-transfected with pEF6 or pEFNrf2DN. CA (3 μM) or vehicle was then added to the cultures. After a 24-h incubation, cell lysates were used for luciferase reporter gene assays. Values are mean±SEM; *p<0.01 by ANOVA.
Next, transcriptional activation of the HO-1 promoter by NEPP was examined by reporter gene assays in primary neurons. Cortical cultures were transfected with reporter cDNAs (1 μg per well), and 0.7 μM NEPP11 was added to the cultures. After a 24 h incubation, cell lysates were subjected to luciferase reporter assays. […] If the Keap1/Nrf2 pathway, indeed, mediates activation of the HO-1 promoter by NEPP11, mutant Nrf2 protein should inhibit this activation. […] Moreover, the selective activation in neurons may explain the relatively small amplitude of total HO-1 activation seen in the mixed neuronal/glial culture system in which glia predominate.
(§1) Transient transfection and measurement of luciferase activity. PC12h cells or cerebrocortical cultures (E17, DIV21) were incubated for 5 h in EBSS containing 1 μg of a plasmid DNA plus Lipofectamine 2000 (Invitrogen, Carlsbad, Calif.). Transfection efficiency was normalized to β-galactosidase activity expressed by co-transfection with pSV-β-gal (Promega). For reporter gene assays, cells were transfected with 1 μg of the reporter construct [ARE(GSTYa)-luciferase] and 0.2 μg pSV-β-gal for 1 hour. The cells were then washed in PBS alone and incubated in the culture medium for another 24 h with or without CA. Firefly luciferase activity and β-galactosidase activity in cell lysates were measured using a Luciferase System and β-Galactosidase Enzyme Assay System, respectively (Promega, Madison, Wis.).
To confirm that CA activated the ARE in these cortical cultures, we performed luciferase reporter gene assays. […] CA accumulates both in neurons and in non-neuronal cells (FIG. 5).

[3] = system: MCAO/reperfusion injury; assay: Focal cerebral ischemia: MCAO/reperfusion in mice; assay type: in vivo, mouse
Protocol: Focal cerebral ischemia and reperfusion. The filament model of middle cerebral artery occlusion (MCAO)/reperfusion was used as described (Gu et al., Science 297:1186-1190, 2002; see Supporting Methods in Supporting Text).
NEPP11 or vehicle was injected intraperitoneally (i.p.) 1 h before and 4 h after MCAO. The area of brain infarction (corrected for possible edema) was assessed on coronal sections from vehicle- and NEPP11-treated mice stained with 2.5% 2,3,5-triphenyltetrazolium chloride 24 h after the onset of reperfusion.
Focal Cerebral Ischemia and Reperfusion. NEPP11 was injected at 100 mg/ml in a 7.5% solution of DMSO in PBS; controls received the diluent alone. The investigator was blinded as to the treatment group. The injected volume was 10 ml/g of body weight, corresponding to 1 mg/kg. […] Other physiological parameters were monitored, including systemic blood pressure, glucose, and arterial blood gasses and pH. […] Occlusion and reperfusion of blood flow were monitored by laser Doppler flowmetry. […]
After the reperfusion period, the animals were killed. […] Areas of infarction occurred in the right middle cerebral artery territory of each brain slice and were quantified with a computerized image analysis system (NIH image 1.62) as described (Gu et al., Science 297:1186-1190, 2000). […]

[4] = system: HO-1 protein; assay: HO-1 induction in mouse brain after i.p. injection; assay type: in vivo; conditions: NEPP11 i.p. 12 h before killing
Protocol: To test the hypothesis that NEPP protection against brain ischemia is associated with HO-1 expression, we examined HO-1 induction by Western blotting and immunostaining. NEPP11 or vehicle was injected intraperitoneally (i.p.) 12 h before the animals were killed. Brain lysates (10 μg per lane) were extracted and subjected to Western blotting with anti-HO-1 and anti-β-actin antibody. For immunostaining, coronal sections of mouse brain were stained with anti-MAP-2 and anti-HO-1 antibodies.

[5] = system: cerebrocortical neurons; assay: NMDA-induced neuronal cell death (excitotoxicity) in cerebrocortical cultures
Protocol: We stained the cultures with both anti-MAP-2 and anti-NeuN monoclonal antibodies to label neuronal dendrites and nuclei, respectively. Vehicle or NEPP11 (0.7 μM) was added to cerebrocortical cultures (E17 and DIV14-21) 60 min before treatment with NMDA (50 μM) for 15 min. The cultures were then incubated for 20 h and subsequently stained with anti-MAP-2 and anti-NeuN and with Hoechst dye. Apoptotic nuclei were identified by morphological changes seen with Hoechst staining. […] We also added zinc protoporphyrin (ZnPP, 10 μM), a relatively specific HO-1 antagonist, simultaneously with NEPP11. The number of apoptotic neurons was assessed by determining the apoptotic index [(number of condensed nuclei in MAP-2 or NeuN-positive cells)/(number of total MAP-2 or NeuN-positive cells)×100%], as reported by Bonfoco et al. (Proc. Natl. Acad. Sci. USA 92:7162-7166, 1995).
Cerebrocortical cultures were prepared from embryonic day-17 Sprague-Dawley rats and used at day 14-21 in vitro (DIV14-21), as described (Bonfoco et al., Proc. Natl. Acad. Sci. USA 92:7162-7166, 1995). To induce predominantly neuronal apoptosis (rather than necrosis), we exposed cortical cultures to 50 mM NMDA plus 5 mM glycine/1.8 mM CaCl2 in nominally Mg^2+-free Earle's balanced salt solution for 15 min (Bonfoco et al., Proc. Natl. Acad. Sci. USA 92:7162-7166, 1995). After exposure to NMDA, the cultures were returned to normal medium containing vehicle or NEPP11 and incubated for 20 hr before analyzing cell survival. To assess the ability of NEPP compounds to block NMDA-induced neuronal apoptosis, we identified apoptotic neurons by double immunofluorescence with anti-NeuN and anti-MAP-2 to specifically label neurons and with Hoechst staining for nuclear morphology to detect apoptosis. The percentage of neurons and non-neuronal cells in our cultures was 33.6±4.9% and 66.4±4.4% (n=4), respectively.
In addition, we used mature cortical cultures (E17, DIV21) to assess excitotoxicity because functional NMDA receptors are expressed on these neurons.

[6] = system: ARE; assay: ARE(GSTYa)-luciferase reporter in PC12h cells; assay type: cell-based
Protocol: (1) pGL3-GSTYa ARE core-luciferase vector. […] The dsDNA thus obtained was inserted into the Mlu l and Bglll sites of the pGL3-promoter vector (Promega Co., Madison, Wis.).
as §1, with “The cells were then washed in PBS alone and incubated in the culture medium for another 24 h with or without CA.” left out
Next, we examined the involvement of the Keap1/Nrf2 pathway more precisely by studying activation of the ARE. This transcription element responds to the Keap1/Nrf2 pathway; we monitored activation of the ARE by performing luciferase reporter gene assays using PC12h cells transfected with ARE(GSTYa)-luciferase (Alam et al., J. Biol. Chem. 274:26071-26077, 1999) in the presence or absence of an Nrf2 dominant-negative (DN) or Keap1 expression vector.

SMILES	shifted ARE probe band intensity [1]	activity of the ARE core element ([2]; NEPP11 0.7 μM, 24 h)	infarct area in coronal sections ([3]; NEPP11 1 mg/kg i.p. 1 h before and 4 h after MCAO, 2 hr MCAO, 24 hr reperfusion)	level of HO-1 protein in the brain [4]	number of apoptotic neurons ([5]; NEPP11 0.7 μM 60 min before NMDA 50 μM 15 min, 20 h)	ARE activation with Nrf2-DN ([2]; 3 μM CA)	ARE-mediated transcription increase ([2]; 3 μM CA, E17 DIV21, 24 h) [fold]	infarct volume, % of the ipsilateral hemisphere ([3]; CA 1 mg/kg i.p. 1 h prior to MCAO, 2-h MCAO/24-h reperfusion, vehicle 51.2±2.4%) [%]	ARE activation with co-transfection of Nrf2-DN or Keap1 ([6]; PC12h cells, CA)	stimulation of ARE-based transcription ([6]; PC12h cells, CA 10 μM) [fold]	ARE activation relative to sulforaphane ([6]; equimolar basis, 20 h)	viability at 3 µM ([5]; Rattus norvegicus, Cerebrocortical neuron, read-out: survival (viable cells) after NMDA) [%]
COC(=O)CCCCC/C=C1/C(=O)C=C[C@H]1CCCCCCc1ccc(C)cc1 [NEPP11]	significant increase in the intensity of this band	significantly increased	significantly reduced	increased	significantly decreased							
CC(C)c1cc2c(c(O)c1O)[C@@]1(C(=O)O)CCCC(C)(C)[C@@H]1CC2 [CA, carnosic acid]						abrogated by Nrf2-DN	2.3	34.5±3.6	significantly repressed	> 10	to a much greater extent than sulforaphane	36 ± 2.3
